Assay results published in US11311531B2, “Method for producing benzazoloquinolium (BQs) salts and using the biological activity of the composition” (Sistema Universitario Ana G. Mendez, Inc., priority 2014, dated 2022).

Experiments:
[1] = system: human colorectal adenocarcinoma COLO-205; assay: Mitochondrial membrane permeability, JC-1 NC3000; format: cell-based; conditions: colo 205, versus negative control and camptothecin
Experimental: (§1) Cell culture conditions: The cell cultures utilized in this study were human colorectal adenocarcinoma COLO-205 (ATCC CCL-222). Cultures were maintained in RPMI 1640 media (ATCC, Manassas Va.) supplemented with 10% fetal bovine serum (ATCC) maintained at 37° C. with 95% air and 5% CO2. Apoptosis analysis by Annexin V expression: The annexin V assay allows detection of the migration phosphatidylserine (PS) to the exterior surface of cells, a characteristic event in apoptotic cells. Approximately 2.5×10^6 cells were treated for 24 hours with 10 μM and 20 μM doses of the BQ test compounds. Controls used in all assays were camptothecin 10 and vehicle (DMSO). […] Samples were analyzed by using the Nucleo Counter NC3000 system annexin V assay (Chemometec, Allerød, Denmark). This system allows for measurement and quantification of stained cells. […] This enzyme mediated event can be quantified by measuring DNA fragments. […] After treatment with BQ's at the test doses, cells were fixed with 70% ethanol for at least 24 hours, stained with 1 μg/ml DAPI, and analyzed using the NC3000 instrument measuring DAPI intensity. […] Approximately 1×10^6 cells were stained with 5,5′,6,6′-Tetrachloro-1,1′,3,3′-tetraethyl-imidacarbocyanine iodide (JC-1) and 1 μg/ml DAPI and analyzed in the NC3000. depolarized cells will fluoresce green while cells with stable mitochondrial membrane potential will fluoresce orange. […]

[2] = system: human colorectal adenocarcinoma COLO-205; assay: Apoptosis analysis by Annexin V expression; format: cell-based; conditions: 24 hours
Experimental: Cell culture conditions: The cell cultures utilized in this study were human colorectal adenocarcinoma COLO-205 (ATCC CCL-222). Cultures were maintained in RPMI 1640 media (ATCC, Manassas Va.) supplemented with 10% fetal bovine serum (ATCC) maintained at 37° C. with 95% air and 5% CO2. Apoptosis analysis by Annexin V expression: The annexin V assay allows detection of the migration phosphatidylserine (PS) to the exterior surface of cells, a characteristic event in apoptotic cells. Approximately 2.5×10^6 cells were treated for 24 hours with 10 μM and 20 μM doses of the BQ test compounds. Controls used in all assays were camptothecin 10 and vehicle (DMSO). After a 24-hour exposure, cells were stained with the annexin V conjugate, and propidium iodide (Biotium, Hayward, Calif.). Samples were analyzed by using the Nucleo Counter NC3000 system annexin V assay (Chemometec, Allerød, Denmark). This system allows for measurement and quantification of stained cells. A one-way ANOVA with post hoc Tukey test was also performed for all assays using GraphPad Prism version 6. DNA Fragmentation: DNA Fragmentation can be used as a marker for detection of cells undergoing apoptosis. This enzyme mediated event can be quantified by measuring DNA fragments. The Nucleo Counter NC3000 assay is based on removal of small DNA fragments and retention of 4′,6-diamidino-2-phenylindole (DAPI) stained higher weight fragments. After treatment with BQ's at the test doses, cells were fixed with 70% ethanol for at least 24 hours, stained with 1 μg/ml DAPI, and analyzed using the NC3000 instrument measuring DAPI intensity. Mitochondrial Membrane Permeability: Mitochondria permeability is central in the cell death process. The Nucleocounter NC3000 preset mitochondrial potential assay was used. Approximately 1×10^6 cells were stained with 5,5′,6,6′-Tetrachloro-1,1′,3,3′-tetraethyl-imidacarbocyanine iodide (JC-1) and 1 μg/ml DAPI and analyzed in the NC3000. depolarized cells will fluoresce green while cells with stable mitochondrial membrane potential will fluoresce orange. The change in ratio of green to orange fluorescence will determine the permeability state of the samples.

[3] = system: human colorectal adenocarcinoma COLO-205; assay: DNA fragmentation, NC3000 DAPI; format: cell-based; conditions: colo 205, versus negative control and camptothecin
Experimental: as §1

[4] = system: NCI 60 human tumor cell line panel; assay: NCI 60 human tumor cell line screen, one dose, whole panel; format: cell-based; conditions: for activity in the NCI 60 screen (growth inhibition, in words): one dose; for growth inhibition: 10 μM
Experimental: (§2) The National Cancer Institute (NCI) 60 human tumor cell line screen uses genetically characterized cells to determine biological activity against various cell lines. The panel is comprised of various cell types representing some of the most important cancer types. Two of the benzazolo[3,2-a]quinolinium salts i.e. NBQ 48 (NSC: D-763303) and ABQ 48 (NSC: D-763307) were tested at a dose of 10 μM on the entire cell line panel. The complete details of the NCI-60 cell line screening are describe in document Feasibility of drug screening with panels of human tumor cell lines using a microculture tetrazolium assay. Cancer research, 1988, 48(3), 589-601 (here included by reference).
(§3) Briefly, the cancer cells are grown in RPM1 1640 medium for 24 hours. Experimental compounds dissolved in DMSO are incubated with cells at 10 μM. After incubation the cells are stained with sulforhodamine B and the absorbance is read on a plate reader. The data reported as a mean graph are shown in the drawings FIG. 21 through FIGS. 24A-24I. For five dose study the test compound is incubated with cells at five different concentrations with 10-fold dilutions, from 10^−4 M, 10^−5, 10^−6, 10^−7, and 10^−8 M. Rest of the procedure is similar to the one dose experiment. After measurement, the (GI50) is calculated from time zero, control growth, and the five concentration absorbance. Inhibitory concentrations (LC50) represent the average of two experiments.
(§4) All the one-dose data of these compounds is reported as a mean of the growth percent of BQ exposed cells. One dose assay results are relative to control and number of cells at time 0. Growth inhibition values are placed from 0 to 100 whereas lethality is reflected in values less than 0. A sample obtained value of 100 means that no growth was inhibited. If the value is for example 30 then growth inhibition is 70%. If a sample has a value of −30 then this means 30% lethality, conversely if the value would be −100 the all cells in the sample are dead.

TK-6 cells = assay: DNA fragmentation, NC3000 DAPI assay; format: cell-based, human; conditions: TK6, 48 hours
Experimental: (§5) Methods—Cultures were exposed for 48 hours to ABQ 48 at doses from 10 μM to 180 μM. Cells were harvested counted and assessed for cell viability implementing the Trypan Blue exclusion method using the Countess™ automated cell counter (Invitrogen Corp. Carlsbad, Calif.). The percentage of viable cells was calculated and graphed using Excel (Microsoft Corp. Redmond, Wash.). The mitochondrial membrane permeability assays was determined applying the Nucleocounter 3000, JC-1 assay. DNA fragmentation and cell cycle alterations were analyzed also through the Nucleocounter 3000 instrument.
(§6) Bioactivity 3. DNA fragmentation—Fragmentation of DNA as a marker for apoptosis is a commonly used assay. Analysis was performed applying the Nucleo counter NC3000 DNA fragmentation assay. Determination of the degree of DNA fragmentation is based on the retention of DAPI, a nucleic acid staining reagent. As described previously TK-6, and Toledo cells were kept in culture at the specified conditions. Cells where then treated with the tested compounds as previously described for 48 hours, after which nutritional media removed, cells harvested, fixed with 70% ethanol, incubated and stained with 1 μg/ml DAPI according to manufacturer's specifications for image analysis measuring DAPI intensity.
(§7) DNA fragmentation—Analysis was performed applying the Nucleo counter NC3000 DNA fragmentation assay. Determination of the degree of DNA fragmentation is based on the retention of DAPI, a nucleic acid staining reagent. Prior to treatment with the tested compounds A431 and TK-6 cells were kept in culture at the specified conditions. Cells where then treated with the tested compounds at the respective IC50 concentrations ([…] DNA fragmentation protocol was as recommended by Nucleo counter NC3000 manufacturer.

Toledo cells [5] = assay: DNA fragmentation, NC3000 DAPI assay; format: cell-based, human; conditions: 48 hours
Experimental: as §5, §6

KM12 = assay: NCI 60 human tumor cell line screen, one dose; format: cell-based; conditions: 10 μM
Experimental: as §2, §3, §4

U251 = assay: NCI 60 human tumor cell line screen, one dose; format: cell-based; conditions: 10 μM
Experimental: as §2, §3, §4

SK-MEL-5 = assay: NCI 60 human tumor cell line screen, one dose; format: cell-based; conditions: 10 μM
Experimental: as §2, §3, §4

Toledo cells [6] = assay: Cell cycle disruption, DAPI image analysis; format: cell-based, human; conditions: 48 hours
Experimental: as §5
(§8) Bioactivity 4. Cell Cycle disruption—Cell cycle effects are of great importance to the characterization of any novel therapeutic agent. This most fundamental cellular process is integral in determining the effects of any drug upon the target cells. After treatment with the tested BQs at previously described conditions, cells were harvested, and stained with 10 μg/ml DAPI (a DNA marker) according to manufacturer's specifications and analyzed with the instrument using image analysis to measure the DAPI intensity as an indicator of the DNA density.

Toledo lymphoma cells = assay: Cell viability, Trypan Blue exclusion; format: cell-based, human
Experimental: (§9) Cell cultures—The three cell lines A431 epitheloid carcinoma cells (ATCC CRL-1555), the human TK-6 lymphoblasts cells (ATCC CRL-8015) and Toledo lymphoma (CRL-2631 respectively) were obtained from American Type Culture Collection (ATCC, Manassas, Va.) and cultured on RPMI 1640 (ATCC) cell culture media with 10% fetal bovine serum (ATCC). Cell cultures were maintained in a cell culture incubator at 37° C. and 5% CO2.
as §5

TK-6 lymphoblasts cells = assay: Cell viability, Trypan Blue exclusion; format: cell-based, human
Experimental: as §9, §5

[7] = system: A431 epitheloid carcinoma cells; assay: Cell viability, Trypan Blue exclusion; format: cell-based, human
Experimental: as §9, §5

Toledo = assay: Mitochondrial membrane permeability, JC-1 assay; format: cell-based, human
Experimental: as §5

A431 [8] = assay: Mitochondrial membrane permeability, JC-1 assay; format: cell-based, human
Experimental: as §5

TK6 [9] = assay: Mitochondrial membrane permeability, JC-1 assay; format: cell-based, human
Experimental: as §5

A431 cells = assay: DNA fragmentation, NC3000 DAPI assay; format: cell-based, human; conditions: A431, ABQ 48 exposure
Experimental: as §5, §7

A431 [10] = assay: Cell cycle disruption, DAPI image analysis; format: cell-based, human; conditions: A431, ABQ 48 exposure
Experimental: as §5
as §8, with “Cell” for “Bioactivity 4. Cell”, “agent.” for “agent. This most fundamental cellular process is integral in determining the effects of any drug upon the target cells.”, “BQS 95 and BQS 38” for “BQs”

TK6 [11] = assay: Cell cycle disruption, DAPI image analysis; format: cell-based, human; conditions: Tk6, ABQ 48 exposure
Experimental: as §5
as §8, with “Cell” for “Bioactivity 4. Cell”, “agent.” for “agent. This most fundamental cellular process is integral in determining the effects of any drug upon the target cells.”, “BQS 95 and BQS 38” for “BQs”

[12] = Cytotoxicity activity of CBQs; format: cell-based; conditions: human, A-431 cells; A-431 cell line

Molecule: 7-(2,3,4-Trimethoxybenzyl)-3-aminostyrylbenzimidazo[3,2-a]quinolinium chloride [ABQ 234 TOM]
- mitochondrial membrane permeabilization [1]: higher mitochondrial permeabilization in comparison with the negative control (water as vehicle) and similar to the positive control camptothecin
- apoptotic cells ([2]; 10 μM): 91%
- apoptotic cells ([2]; 20 μM): 91%
- DNA fragmentation induction [3]: did not present evidence of DNA fragmentation

Molecule: 7-(2,3,4-trimethoxybenzyl)-3-nitrobenzimidazo[3,2-a]quinolinium chloride [NBQ 234 TOM]
- mitochondrial membrane permeabilization [1]: higher mitochondrial permeabilization in comparison with the negative control (water as vehicle) but lower than cells treated with the positive control camptothecin
- apoptotic cells ([2]; 10 μM): 83.7%
- apoptotic cells ([2]; 20 μM): 87.5%
- DNA fragmentation induction [3]: higher DNA fragmentation in comparison with the negative control (water as vehicle) and higher than the positive control camptothecin

Molecule: 7-benzyl-3-nitrobenzimidazolo[3,2-a]quinolinium chloride [NBQ-48]
- activity in the NCI 60 screen (growth inhibition, in words) [4]: less effective
- DNA fragmentation (TK-6 cells): higher than the negative control
- DNA fragmentation (Toledo cells [5]): higher than the negative control

Molecule: Nc1ccc2c(ccc3n2c2ccccc2[n+]3Cc2ccccc2)c1.[Cl-] [ABQ-48, 7-Benzyl-3-aminobenzimidazo[3,2-a]quinolinium chloride]
- growth inhibition (KM12): > 90%
- growth inhibition (U251): > 90%
- growth inhibition (SK-MEL-5): > 90%
- cell cycle alteration (Toledo cells [6]; listed as ABQ 48): observed
- cell cycle alteration (Toledo cells [6]; listed as ABQ48): arrested at the S/G2 stage
- IC90 (Toledo lymphoma cells): 100 µM
- IC50 (Toledo lymphoma cells; 48 hours exposure): 50 µM
- IC90 (TK-6 lymphoblasts cells; Tk6): 135 µM
- IC50 (TK-6 lymphoblasts cells; Tk6, 48 hours exposure): 8.6 µM
- IC90 ([7]; A431): 90 µM
- IC50 ([7]; A431, 48 hours exposure): 23 µM
- growth inhibition ([4]; in no less than 8 cell lines): greater than 60%
- growth inhibition ([4]; in several cell lines): > 70%
- activity in the NCI 60 screen (growth inhibition, in words) [4]: highly effective
- mitochondrial membrane permeability (Toledo): observed
- mitochondrial membrane permeability (A431 [8]): observed
- mitochondrial membrane permeability (TK6 [9]): observed
- DNA fragmentation (A431 cells): observed
- DNA fragmentation (TK-6 cells; listed as ABQ 48): observed
- DNA fragmentation (TK-6 cells; listed as ABQ48): higher than the negative control
- DNA fragmentation (Toledo cells [5]; listed as ABQ 48): observed
- DNA fragmentation (Toledo cells [5]; listed as ABQ48): higher than the negative control
- cell cycle alteration (A431 [10]): observed
- cell cycle alteration (TK6 [11]): observed

Molecule: Cc1ccc2sc3ccc4c(Cl)cccc4[n+]3c2c1 [CBQ-108, 4-Chloro-10-methylbenzothiazolo[3,2-a]quinolinium chloride]
- IC50 [12]: 3.7 µM
